Experimental data: patent US20170202939A1, “PERSONALIZED CANCER VACCINES AND METHODS THEREFOR” (Washington University, priority 2014, published 2017)
No end group written: not given here.

Tested on: peptide-pulsed T2 (HLA-A*02:01) cells
Test: 4 h 51Cr-release assay with peptide titrations on T2 cells (peptide avidity, AAS vs WT recognition)
Type: cell-based, human
Details: peptide presented on T2 cells
Method: ^51Cr release assays to measure specific lysis have been described previously (Carreno, B. M., et al., Immunol. Cell Biol., 87: 167-177, 2009; Linette, G. P. et al., Clin. Cancer Res. 11, 7692-7699, 2005). Melanoma cell lines DM6 (HLAA2+ gp100+) and A375 (HLA-A2+gp100−) were labeled with 25 μCi ^51Cr for 1 hour, washed, and tested as targets in a standard 4-hour assay. Effectors were generated using PBMCs collected after D3 and cultured for 12 days in the presence of peptide (40 μg/ml) and IL2 (50 U/ml every other day). Vaccine-induced antigen-specific T cells were characterized using HLAA*0201/peptide dextramers (Immudex). To determine the avidity (effective concentration at 50% maximal lysis) of vaccine-induced T cells for antigen, T2 cells were pulsed with titrated G209-2M or G280-9V peptide concentrations for 1 hour in serum-free media followed by 51Cr (25 μCi) labeling for 1 hour, washed twice, and tested using vaccine-induced gp100-specific T cells in a standard 4-hour assay.
For functional characterization, neoantigen-specific T cell lines were generated using autologous mDC and antigen loaded artificial antigen presenting cells at a ratio of 1:1 as previously described (Carreno, B. M., et al., J. Immunol., 188, 5839-5849, 2012). […] For production of cytokines, neoantigen-specific T cells were restimulated using artificial antigen presenting cells in the presence or absence of peptide, supernatants collected at 24 h and cytokine produced determined using MILLIPLEX® MAP Human Cytokine Panel I (EMD Millipore).
To examine cross-reactivity, T2 cells were pulsed with MUT or WT peptide at the indicated concentrations, labeled with ^51CR-chromium and used as target in a cytotoxic assay. Vaccine-induced T cells were incubated with peptide-pulsed T2 cells and ^51Cr-Chromium release measured at 4 h. […]
FIG. 34 illustrates that neoantigen-specific T cells recognition of AAS (closed circles) and WT (open circles) peptides was determined in a standard 4 h ^51Cr-release assay using peptide titrations on T2 (HLAA*02:01) cells. […]

Sequence	T cell discrimination between mutated (AAS) and wild-type peptide	T cell discrimination between mutated (AAS) and wild-type peptide (listed as OR8B3)	T cell discrimination between mutated (AAS) and wild-type peptide (listed as OR8B3 T190I)
KLMNIQQKL	can discriminate between peptide sequence containing single an changes		
QLSCISTYV		cannot discriminate between MUT and WT sequences	could not discriminate between AAS and wild-type (WT) peptide
